Data taken from patent US20210179578A1, “OX1 ANTAGONISTS” (Heptares Therapeutics Limited, priority 2017, published 2021).

Columns and labels:
[1] = target: T1, human OX1 receptor (Homo sapiens, UniProt O43613); assay: [3H]-radioligand binding assay, OX1; design: made in house; host or cells: SF21 insect cells (baculovirus; P0 virus made in SF9); details: [3H]-radioligand binding, human OX1 membranes; read-out: pKi average OX1 (converted)
T1 sequence (O43613 1-425): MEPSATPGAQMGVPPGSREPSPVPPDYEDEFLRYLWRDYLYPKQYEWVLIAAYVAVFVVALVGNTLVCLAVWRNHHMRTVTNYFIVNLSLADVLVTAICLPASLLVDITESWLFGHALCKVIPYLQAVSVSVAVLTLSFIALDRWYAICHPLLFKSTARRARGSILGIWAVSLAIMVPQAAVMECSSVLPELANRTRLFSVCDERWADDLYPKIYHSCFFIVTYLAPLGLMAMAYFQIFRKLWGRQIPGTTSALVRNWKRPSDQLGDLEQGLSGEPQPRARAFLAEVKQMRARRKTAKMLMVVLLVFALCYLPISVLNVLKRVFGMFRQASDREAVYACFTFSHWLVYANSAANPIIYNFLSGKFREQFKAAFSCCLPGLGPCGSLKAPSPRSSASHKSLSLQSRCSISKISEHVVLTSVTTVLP
Text: (§1) Cloning, Baculovirus generation, large-scale infection of SF21 cells and membrane preparation. Human OX1 or OX2 receptor were cloned into Invitrogen's (ThermoFisher Scientific, UK) Bac-to-Bac Baculovirus Expression System. P0 baculovirus was generated by transfecting SF9 cells with bacmid DNA using Cellfectin® II transfection reagent (ThermoFisher Scientific, UK, Catalog number 10362-100). Following P0 generation P1 virus was then generated ready for large scale infection and membrane preparation. SF21 cells were grown in expression medium ESF921 (Expression Systems, USA, catalog number 96-001-01) supplemented with 10% heat-inactivated FBS and 1% Pen/Strep and were infected at a cell density of 2.5×10^6 cells/mL and a multiplicity of infection of 1.0 for both human OX1R and OX2R. Incubation was carried out at over 48 h in a shaking incubator set at 27° C. The cell culture was then centrifuged at 2,500 rcf for 10 min at 4° C. The pellets were resuspended in cold PBS supplemented with Roche's Complete EDTA-free protease inhibitor cocktail tablets (Roche Applied Sciences, catalog number 05056489001), 1 mM PMSF and 1 mM EDTA. The resuspended cell paste was then centrifuged at 3,273 rcf for 12 min at 4° C. The supernatant was discarded and the pellet frozen at −80° C. The cell pellet from a 4 L culture was resuspended in buffer containing 50 mM HEPES pH 7.5, 150 mM NaCl, 8 Roche EDTA-Free protease inhibitor cocktail tablets and 1 mM PMSF. The suspension was left stirring at rt for 1 h and then homogenised for 90 s at 9,500 rpm using a VDI 25 (VWR, USA) homogeniser. The cells were then lysed using a Microfluidiser processor M-110L Pneumatic (Microfluidics, USA) at 60 PSI and membranes collected by ultracentrifugation at 204.7 k×g for 1 h. The supernatant was discarded and the pellet was resuspended and homogenised in 90 s at 9,500 rpm in 50 mL (25 mL for each 2 L culture) of buffer containing 50 mM Hepes pH 7.5, 150 mM NaCl, 3 Roche EDTA-free protease inhibitor cocktail tablets and 1 mM PMSF. The resulting membranes were then stored at −80° C.
(§2) [^3H]-radioligand binding assay. After thawing, membrane homogenates were resuspended in the binding buffer (8.5 mM HEPES, pH 7.4, 1.3 mM CaCl2, 1.2 mM MgSO4, 118 mM NaCl, 4.7 mM KCl, 4 mM NaHCO3, 1.2 mM KH2PO4, 11 mM glucose) to a final assay concentration of 6.4 μg (OX1) or 1.4 μg (OX2) protein per well. Saturation isotherms were determined by the addition of various concentrations (0-30 nM) of [^3H]-4-(2,6-difluoro-4-methoxybenzyl)-2-(5,6-dimethoxypyridin-3-yl)-2H-1,2,4-benzothiadiazin-3(4H)-one 1,1-dioxide (Christopher et al, MedChemComm., 2015, 6, 947-955) in a total reaction volume of 250 μL for 90 min at rt. At the end of the incubation, membranes were filtered onto a 96-well GF/B filter pre-incubated with 0.5% polyethylenimine, with a Tomtec cell harvester and washed 5 times with 0.5 mL distilled water. Non-specific binding (NSB) was measured in the presence of 3.33 μM [4-(5-chloro-1,3-benzoxazol-2-yl)-7-methyl-1,4-diazepan-1-yl][5-methyl-2-(2H-1,2,3-triazol-2-yl)phenyl]methanone (Wertz et al, Angew. Chem. Int. Ed., 2011, 50, 11511-11515). Radioactivity on the filter was counted (1 min) on a Microbeta radiometric plate counter (Perkin Elmer) after addition of 50 μL of scintillation fluid (LabLogic: Part #SG-BXX-14). […] IC50 values were derived from the inhibition curve and the equilibrium dissociation constant (Ki) values were calculated using the Cheng-Prusoff equation.

[2] = target: T2, human OX2 receptor (Homo sapiens, UniProt O43614); assay: [3H]-radioligand binding assay, OX2; design: made in house; host or cells: SF21 insect cells (baculovirus; P0 virus made in SF9); details: [3H]-radioligand binding, human OX2 membranes; read-out: pKi average OX2 (converted)
T2 sequence (O43614 1-444): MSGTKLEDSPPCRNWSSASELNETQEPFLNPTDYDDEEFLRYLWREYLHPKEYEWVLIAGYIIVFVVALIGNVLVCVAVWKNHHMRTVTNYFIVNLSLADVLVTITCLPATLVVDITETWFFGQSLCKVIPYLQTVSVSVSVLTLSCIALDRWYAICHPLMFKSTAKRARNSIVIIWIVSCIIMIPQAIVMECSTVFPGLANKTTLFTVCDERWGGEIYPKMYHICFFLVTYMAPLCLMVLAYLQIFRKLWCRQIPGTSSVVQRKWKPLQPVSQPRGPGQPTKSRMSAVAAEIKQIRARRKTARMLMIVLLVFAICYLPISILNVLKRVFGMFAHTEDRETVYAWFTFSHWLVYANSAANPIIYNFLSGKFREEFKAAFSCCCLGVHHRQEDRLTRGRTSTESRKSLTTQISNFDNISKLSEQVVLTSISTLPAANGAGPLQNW
Text: as §1, §2

Structure (SMILES): Cc1ccc(N2CCc3c(F)cccc3N(Cc3c(F)cc(Br)cc3F)C2=O)cc1C(C)(F)F [Example 1, 1-(4-bromo-2,6-difluorobenzyl)-3-[3-(1,1-difluoroethyl)-4-methylphenyl]-6-fluoro-1,3,4,5-tetrahydro-2H-1,3-benzodiazepin-2-one]
- Ki [1]: 2 nM
- Ki [2]: 200 nM

Structure (SMILES): COc1cc(F)c(CN2C(=O)N(c3cnc(OC)c(S(C)(=O)=O)c3)CCc3c(F)cccc32)c(F)c1F [Example 15, 6-fluoro-3-[6-methoxy-5-(methylsulfonyl)pyridin-3-yl]-1-(2,3,6-trifluoro-4-methoxybenzyl)-1,3,4,5-tetrahydro-2H-1,3-benzodiazepin-2-one]
- Ki [1]: 1.26 nM
- Ki [2]: > 251 nM

Structure (SMILES): COc1ncc(N2CCc3c(F)cccc3N(Cc3ccc(Br)cc3F)C2=O)cc1C(C)(F)F [Example 10, 1-(4-bromo-2-fluorobenzyl)-3-[5-(1,1-difluoroethyl)-6-methoxypyridin-3-yl]-6-fluoro-1,3,4,5-tetrahydro-2H-1,3-benzodiazepin-2-one]
- Ki [1]: 1.26 nM
- Ki [2]: > 251 nM

Structure (SMILES): CSc1cc(N2CCc3c(F)cccc3N(Cc3c(F)cc(Br)cc3F)C2=O)ccc1C [Example 26, 1-(4-bromo-2,6-difluorobenzyl)-6-fluoro-3-[4-methyl-3-(methylsulfanyl)phenyl]-1,3,4,5-tetrahydro-2H-1,3-benzodiazepin-2-one]
- Ki [1]: 1.26 nM
- Ki [2]: 100 nM

Structure (SMILES): COCc1cc(F)c(CN2C(=O)N(c3cc(C(C)(F)F)c(OC)nc3OC)CCc3c(F)cccc32)c(F)c1 [Example 24, 3-[5-(1,1-difluoroethyl)-2,6-dimethoxypyridin-3-yl]-1-[2,6-difluoro-4-(methoxymethyl)benzyl]-6-fluoro-1,3,4,5-tetrahydro-2H-1,3-benzodiazepin-2-one]
- Ki [1]: 1 nM
- Ki [2]: > 158 nM

Structure (SMILES): Cc1ncc(N2CCc3c(F)cccc3N(Cc3c(F)cc(Br)cc3F)C2=O)cc1C(C)(F)F [Example 32, 1-(4-bromo-2,6-difluorobenzyl)-3-[5-(1,1-difluoroethyl)-6-methylpyridin-3-yl]-6-fluoro-1,3,4,5-tetrahydro-2H-1,3-benzodiazepin-2-one]
- Ki [1]: 0.631 nM
- Ki [2]: 50.1 nM

Structure (SMILES): COc1ncc(N2CCc3c(F)cccc3N(Cc3c(F)cc(Br)cc3F)C2=O)cc1C(C)(F)F [Example 3, 1-(4-bromo-2,6-difluorobenzyl)-3-[5-(1,1-difluoroethyl)-6-methoxypyridin-3-yl]-6-fluoro-1,3,4,5-tetrahydro-2H-1,3-benzodiazepin-2-one]
- Ki [1]: 1.26 nM
- Ki [2]: > 79.4 nM

Structure (SMILES): Cc1cc(C)c(S(C)(=O)=O)cc1N1CCc2c(F)cccc2N(Cc2c(F)cc(Br)cc2F)C1=O [Example 31, 1-(4-bromo-2,6-difluorobenzyl)-3-[2,4-dimethyl-5-(methylsulfonyl)phenyl]-6-fluoro-1,3,4,5-tetrahydro-2H-1,3-benzodiazepin-2-one]
- Ki [1]: 1.26 nM
- Ki [2]: 200 nM

Structure (SMILES): COc1nc(OC)c(C(C)(F)F)cc1N1CCc2c(F)cccc2N(Cc2c(F)cc(Br)cc2F)C1=O [Example 23, 1-(4-bromo-2,6-difluorobenzyl)-3-[5-(1,1-difluoroethyl)-2,6-dimethoxypyridin-3-yl]-6-fluoro-1,3,4,5-tetrahydro-2H-1,3-benzodiazepin-2-one]
- Ki [1]: 1.26 nM
- Ki [2]: > 126 nM

Structure (SMILES): COc1ccc(CN2C(=O)N(c3cnc(OC)c(C(C)(F)F)c3)CCc3c(F)cccc32)c(F)c1 [Example 4, 3-[5-(1,1-difluoroethyl)-6-methoxypyridin-3-yl]-6-fluoro-1-(2-fluoro-4-methoxybenzyl)-1,3,4,5-tetrahydro-2H-1,3-benzodiazepin-2-one]
- Ki [1]: 0.794 nM
- Ki [2]: 63.1 nM

Structure (SMILES): Cc1ccc(N2CCc3c(F)cccc3N(Cc3c(F)cc(Br)cc3F)C2=O)cc1S(C)(=O)=O [Example 27, 1-(4-bromo-2,6-difluorobenzyl)-6-fluoro-3-[4-methyl-3-(methylsulfonyl)phenyl]-1,3,4,5-tetrahydro-2H-1,3-benzodiazepin-2-one]
- Ki [1]: 1.58 nM
- Ki [2]: > 316 nM

Structure (SMILES): Cc1cc(C)c(S(C)(=O)=O)cc1N1CCc2ccccc2N(Cc2c(F)cc(Br)cc2F)C1=O [Example 29, 1-(4-bromo-2,6-difluorobenzyl)-3-[2,4-dimethyl-5-(methylsulfonyl)phenyl]-1,3,4,5-tetrahydro-2H-1,3-benzodiazepin-2-one]
- Ki [1]: 1.26 nM
- Ki [2]: 100 nM

Structure (SMILES): COc1ncc(N2CCc3c(F)cccc3N(Cc3c(F)cc(Br)cc3F)C2=O)cc1S(C)(=O)=O [Example 14, 1-(4-bromo-2,6-difluorobenzyl)-6-fluoro-3-[6-methoxy-5-(methylsulfonyl)pyridin-3-yl]-1,3,4,5-tetrahydro-2H-1,3-benzodiazepin-2-one]
- Ki [1]: 3.16 nM
- Ki [2]: > 251 nM

Structure (SMILES): Cc1ncc(C2CCc3c(F)cccc3N(Cc3c(F)cc(Br)cc3F)C2=O)cc1S(C)(=O)=O (single isomer, unassigned) [Example 38, 1-(4-bromo-2,6-difluorobenzyl)-6-fluoro-3-[6-methyl-5-(methylsulfonyl)pyridin-3-yl]-1,3,4,5-tetrahydro-2H-1-benzazepin-2-one]
- Ki [1]: 10 nM
- Ki [2]: > 316 nM

Structure (SMILES): Cc1ncc(C2CCc3c(F)cccc3N(Cc3c(F)cc(Br)cc3F)C2=O)cc1S(C)(=O)=O (single isomer, unassigned) [Example 39, 1-(4-bromo-2,6-difluorobenzyl)-6-fluoro-3-[6-methyl-5-(methylsulfonyl)pyridin-3-yl]-1,3,4,5-tetrahydro-2H-1-benzazepin-2-one]
- Ki [1]: 1.26 nM
- Ki [2]: > 501 nM

Structure (SMILES): COc1ncc(C2CCc3c(F)cccc3N(Cc3cc(C#N)ccc3F)C2=O)cc1C(C)(F)F (single isomer, unassigned) [Example 13, 3-({3-[5-(1,1-difluoroethyl)-6-methoxypyridin-3-yl]-6-fluoro-2-oxo-2,3,4,5-tetrahydro-1H-1-benzazepin-1-yl}methyl)-4-fluorobenzonitrile]
- Ki [1]: 0.794 nM
- Ki [2]: > 158 nM
